According to patent US10183040B2, “Method for regulation of lipid metabolism” (PROFEAT BIOTECHNOLOGY CO., LTD., priority 2014, dated 2019):

Assay: Serum triacylglycerol, cholesterol, HDL and LDL assays of diabetes mice, Table 4 groups (FIG. 4A-4D)
Type: in vivo, db/db mice (C57BLKS/J-leprdb/leprdb)
Conditions: 4 mg/kg/day, versus phosphate solution control
Method: (§1) FIG. 4A is a bar chart of the triacylglycerol assay of diabetes mice in accordance with the present invention, wherein the mice of control group are administered with phosphate buffer; the mice of treatment group are administered with 4 mg/kg/day composition A1; the mice of B01 group are administered with commercial 4 mg/kg/day ferrous glycine, and the mice of C01 group are administered with 4 mg/kg/day ferrous sulfate.
as §1, with “4B” for “4A”, “cholesterol” for “triacylglycerol”, “sulfate. […]” for “sulfate.”
The mice were daily and orally administered with the composition A1 at dosage of […] for 12 weeks. The body weights of the mice were measured every 3 days, and the serum biochemical values of the mice were measured every 4 weeks after orally administering with the composition A1. Triacylglycerol and cholesterol of the serum biochemical values were determined using a Biochem-Immuno Fully Autoanalyzer (Brea, Calif., USA) or a Chemistry Analyzer (Hitachi, Ltd., Japan). […]

Row | Molecule | triacylglycerol
1 | NCC(=O)[O-].NCC(=O)[O-].[Fe+2] [commercial ferrous glycine, ferrous glycine] | effectively reduced
2 | ferrous sulfate [commercial ferrous sulfate] | effectively reduced
